Measured values as given in patent publication EP4806900A2, “RAS INHIBITORS” (Revolution Medicines, Inc., priority 2019, dated 2021).

These compounds were tested on NCI-H358 (K-Ras G12C) (assay: CellTiter-Glo cell viability assay, NCI-H358). Settings: Homo sapiens, NCI-H358, Table 5; read-out: H358 Cell Viability assay data (K-Ras G12C, IC50).
Type: cell-based, human
Protocol: Note - The following protocol describes a procedure for monitoring cell viability of K-Ras mutant cancer cell lines in response to a compound of the invention. Other RAS isoforms may be employed, though the number of cells to be seeded will vary based on cell line used.
Test compounds (132.5 nL) were directly dispensed into the assay plates containing cells. […] On day 5, assay plates and their contents were equilibrated to room temperature for approximately 30 minutes. […] Luminescence was measured using the PerkinElmer Enspire. Data were normalized by the following: (Sample signal/Avg. DMSO)*100. The data were fit using a four-parameter logistic fit.
`C=CC(=O)N1CC(CN2C(=O)O[C@H](C)[C@H]2C(=O)N[C@H]2Cc3cccc(c3)-c3ccc4c(c3)c(c(-c3cccnc3[C@H](C)OC)n4CC)CC(C)(C)COC(=O)[C@@H]3CCCN(N3)C2=O)C1` (atropisomer, axis not shown) [Compound A460] was tested, and the IC50 was > 1 µM.
With `CO[C@@H](C)c1ncccc1-c1c2c3cc(ccc3n1CC(F)(F)F)-c1cc(cc(C(F)F)c1)C[C@H](NC(=O)[C@H](C(C)C)N(C)C(=O)[C@H]1CCN(C(=O)C#CC(C)(C)N3CCC3)C1)C(=O)N1CCC[C@H](N1)C(=O)OCC(C)(C)C2` (atropisomer, axis not shown) [Compound A370] the IC50 was < 0.01 µM.
`CO[C@@H](C)c1ncccc1-c1c2c3cc(ccc3n1CC(F)(F)F)-c1csc(n1)C[C@H](NC(=O)[C@H](C(C)C)N(C)C(=O)N1C[C@@H]3OCCN(C(=O)/C=C/CN(C)C)[C@@H]3C1)C(=O)N1CCC[C@H](N1)C(=O)OCC(C)(C)C2` (atropisomer, axis not shown) [Compound A573] showed an IC50 of 0.01 to 0.1 µM.

Same assay, conditions: Homo sapiens, NCI-H358, read-out: H358 Cell Viability assay data (K-Ras G12C, IC50, uM), Table 5
With `C=CC(=O)N1CCOC2CCN(C(=O)N(C)C(C(=O)NC3Cc4nc(cs4)-c4ccc5c(c4)c(c(-c4cccnc4C(C)OC)n5CC)CC(C)(C)COC(=O)C4CCCN(N4)C3=O)C(C)C)CC21` (stereo not shown) [Compound A596] the IC50 was < 0.01 µM.
`C=CC(=O)N1CC[C@H](C(=O)N(C)[C@H](C(=O)N[C@H]2Cc3cc(O)cc(c3)-c3ccc4c(c3)c(c(-c3cc(CN(C)C)cnc3COC)n4CC)CC(C)(C)COC(=O)[C@@H]3CCCN(N3)C2=O)C(C)C)C1` [Compound A149] gave an IC50 of 0.01 to 0.1 µM.
With `CCn1c(-c2cccnc2[C@H](C)OC)c2c3cc(ccc31)-c1cc(O)cc(c1)C[C@H](NC(=O)[C@H](C(C)C)N(C)C(=O)[C@H]1CCN(C(=O)C#CCN3CCOCC3)C1)C(=O)N1CCC[C@H](N1)C(=O)OCC(C)(C)C2` [Compound A182] the IC50 was < 0.01 µM.

Same assay, conditions: Table 5; read-out: H358 Cell Viability assay data (K-Ras G12C, IC50)
“(2S)-N-[(8S,14S,20P)-22-ethyl-21-{4-[(1S)-1-methoxyethyl]pyridin-3-yl}-18,18-dimethyl-9,15-dioxo-16-oxa-10,22,28-triazapentacyclo[18.5.2.1^2,^6.1^10,^14.0^23,^27]nonacosa-1(26),2,4,6(29),20,23(27),24-heptaen-8-yl]-3-methyl-2-{N-methyl-1-[(3S)-1-(prop-2-enoyl)pyrrolidin-3-yl]formamido}butanamide [Compound A115]” showed an IC50 of 0.01 to 0.1 µM.
`C=CC(=O)N1CC[C@H](C(=O)N(C)[C@H](C(=O)N[C@H]2Cc3cc(O)cc(c3)-c3ccc4c(c3)c(c(-c3ccccc3)n4CC)CC(C)(C)COC(=O)[C@@H]3CCCN(N3)C2=O)C(C)C)C1` [Compound A23] was tested, and the IC50 was 0.1 to 1 µM.
`C=CC(=O)N1CC[C@H](C(=O)N(C)[C@H](C(=O)N[C@H]2Cc3cc(O)cc(c3)-c3ccc4c(c3)c(c(-c3c(CCOC)cccc3OC)n4CC)CC(C)(C)COC(=O)[C@@H]3CCCN(N3)C2=O)C(C)C)C1` [Compound A80] gave an IC50 of 0.1 to 1 µM.
In the case of `C=CC(=O)N1CC[C@H](C(=O)N(C)[C@H](C(=O)N[C@H]2Cc3cc(OC(=O)CCN4CCN(C)CC4)cc(c3)-c3ccc4c(c3)c(c(-c3ccccc3CCOC)n4CC)CC(C)(C)COC(=O)[C@@H]3CCCN(N3)C2=O)C(C)C)C1` [Compound A7], the IC50 is reported as 0.1 to 1 µM.
`CCn1c(-c2cccnc2COC)c2c3cc(ccc31)-c1cc(O)cc(c1)C[C@H](NC(=O)[C@H](C(C)C)N(C)C(=O)c1ccc(NC(=O)/C=C/CN(C)C)cn1)C(=O)N1CCC[C@H](N1)C(=O)OCC(C)(C)C2` [Compound A67, (2E)-4-(dimethylamino)-N-(6-{[(1S)-1-{[(8S,14S)-22-ethyl-4-hydroxy-21-[2-(methoxymethyl)pyridin-3-yl]-18,18-dimethyl-9,15-dioxo-16-oxa-10,22,28-triazapentacyclo[18.5.2.1^2,^6.1^10,^14.0^23,^27]nonacosa-1(26),2,4,6(29),20,23(27),24-heptaen-8-yl]carbamoyl}-2-methylpropyl](methyl)carbamoyl}pyridin-3-yl)but-2-enamide] showed an IC50 of 0.1 to 1 µM.
With `CCn1c(-c2ccccc2CN(C)C)c2c3cc(ccc31)-c1cc(O)cc(c1)C[C@H](NC(=O)[C@H](C(C)C)N(C)C(=O)c1ccc(NC(=O)/C=C/CN(C)C)cn1)C(=O)N1CCC[C@H](N1)C(=O)OCC(C)(C)C2` [Compound A46] the IC50 was > 1 µM.
With `C=CC(=O)N1CC[C@H](C(=O)N(C)[C@H](C(=O)N[C@H]2Cc3cc(O)cc(c3)-c3ccc4c(c3)c(c(-c3ccccc3CCOC)n4C(C)(C)C#N)CC(C)(C)COC(=O)[C@@H]3CCCN(N3)C2=O)C(C)C)C1` [Compound A34] the IC50 was 0.01 to 0.1 µM.
In the case of `CCn1c(-c2ccccc2CCOC)c2c3cc(ccc31)-c1cc(O)cc(c1)C[C@H](NC(=O)[C@H](C(C)C)N(C)C(=O)C1CCN(C(=O)/C=C/CN(C)C)CC1)C(=O)N1CCC[C@H](N1)C(=O)OCC(C)(C)C2` [Compound A19], the IC50 is reported as 0.1 to 1 µM.
In the case of `CCn1c(-c2ccccc2CCOC)c2c3cc(ccc31)-c1cc(O)cc(c1)C[C@H](NC(=O)[C@H](C(C)C)N(C)C(=O)[C@H]1CCN(C(=O)C#CCN(C)C)C1)C(=O)N1CCC[C@H](N1)C(=O)OCC(C)(C)C2` [Compound A38], the IC50 is reported as < 0.01 µM.
Compound `CCn1c(-c2cccnc2COC)c2c3cc(ccc31)-c1cc(O)cc(c1)C[C@H](NC(=O)[C@H](C(C)C)N(C)C(=O)C1CN(C(=O)/C=C/CN(C)C)C1)C(=O)N1CCC[C@H](N1)C(=O)OCC(C)(C)C2` [Compound A71, (2S)-2-(1-{1-[(2E)-4-(dimethylamino)but-2-enoyl]azetidin-3-yl}-N-methylformamido)-N-[(8S,14S)-22-ethyl-4-hydroxy-21-[2-(methoxymethyl)pyridin-3-yl]-18,18-dimethyl-9,15-dioxo-16-oxa-10,22,28-triazapentacyclo[18.5.2.1^2,6.1^10,^14.0^23,^27]nonacosa-1(26),2,4,6(29),20,23(27),24-heptaen-8-yl]-3-methylbutanamide] has an IC50 of 0.1 to 1 µM.
With `C=CC(=O)N1CCC(C(=O)N(C)[C@H](C(=O)N[C@H]2Cc3cc(O)cc(c3)-c3ccc4c(c3)c(c(-c3ccccc3CCOC)n4CC)CC(C)(C)COC(=O)[C@@H]3CCCN(N3)C2=O)C(C)C)CC1` [Compound A14] the IC50 was 0.1 to 1 µM.
`C=CC(=O)N1CC2CCC1CN2C(=O)N(C)[C@H](C(=O)N[C@H]1Cc2nc(cs2)-c2ccc3c(c2)c(c(-c2cccnc2[C@H](C)OC)n3CC)CC(C)(C)COC(=O)[C@@H]2CCCN(N2)C1=O)C(C)C` [Compound A420] gave an IC50 of 0.01 to 0.1 µM.
In the case of `C=CC(=O)N1CC[C@H](C(=O)N(C)[C@H](C(=O)N[C@H]2Cc3cc(O)cc(c3)-c3ccc4c(c3)c(c(C3=C(COC)CCCC3)n4CC)CC(C)(C)COC(=O)[C@@H]3CCCN(N3)C2=O)C(C)C)C1` [Compound A64], the IC50 is reported as 0.01 to 0.1 µM.
In the case of `C=CC(=O)N1CC[C@H](C(=O)N(C)[C@H](C(=O)N[C@H]2Cc3cc(O)cc(c3)-c3ccc4c(c3)c(c(-c3ccc5cc(CN(C)C)n(C)c5c3)n4CC)CC(C)(C)COC(=O)[C@@H]3CCCN(N3)C2=O)C(C)C)C1` [Compound A35], the IC50 is reported as 0.01 to 0.1 µM.
`CCn1c(-c2cccnc2[C@H](C)OC)c2c3cc(ccc31)-c1csc(n1)C[C@H](NC(=O)[C@H](C(C)C)N(C)C(=O)N1C[C@@H]3CN(C(=O)C#CC(C)(C)N(C)C)CC[C@@H]31)C(=O)N1CCC[C@H](N1)C(=O)OCC(C)(C)C2` (atropisomer, axis not shown) [Compound A625] was tested, and the IC50 was 0.01 to 0.1 µM.

Same assay, conditions: read-out: H358 Cell Viability assay data (K-Ras G12C, IC50); Table 5
`C=CC(=O)N1CC[C@H](C(=O)N(C)[C@H](C(=O)N[C@H]2Cc3cccc(c3)-c3ccc4c(c3)c(c(-c3cc(C5CCN(C)CC5)cnc3[C@H](C)OC)n4CC)CC(C)(C)COC(=O)[C@@H]3CCCN(N3)C2=O)C(C)C)C1` (atropisomer, axis not shown) [Compound A515] was tested, and the IC50 was < 0.01 µM.
